Test results published in patent publication EP0221208B1, “Hair growth promoting compositions” (MEIJI SEIKA KAISHA LTD., priority 1985, dated 1987).

System: Cynomolgus monkeys (Crab-eating macaques)
Assay: Increase in temperature of the true skin after application to the skin surface (Test No. 2, net effect TE)
Assay type: in vivo
Conditions: Test (ii); ester as penetration agent at 0.5% (w/v) or more in gel-like tonic formulation containing Substance MH-548
Method: For the purpose of confirming whether Substance P or Substance P-related peptide of the formula (II) is actually effective to increase the blood flow in the capillary blood vessels at a local area of the skin, we have conducted some experiments where the hair growth promoting formulation of this invention was applied to a local skin surface of monkies, and an increase in the temperature of the underlying true skin tissue below the local skin surface was measured, which should be considered to be invoked by such increase in the local blood flow at the local skin site owing to the vasodilating activity of Substance P or Substance P-related peptide of the formula (II).
Cynomolgus monkeys (Crab-eating macaques) (female, body weight 3.8-4.2 kg) were fixed each in a device for fixing the monkey. The hair was cut off from an area in the upper arms of each monkey. A probe of a thermometer for measurement of the temperature in a deep place (a thermometer commercially available from Telmo Co., Ltd., Japan) was sent into the hair-removed areas of each upper arm of the monkey, and the temperature in the true skin layer of the left and right upper arms of the monkey was measured before the administration of the active peptide for promoting the hair growth was made. […]
Thus, the following parameters were evaluated. […]

CCOC(=O)CCCCCCCCC(=O)OCC [di-ethyl sebacate]
effect of increasing the temperature in the true skin (TE): better effect than isopropyl myristate and di-isopropyl adipate
